Measured values from US7294637B2 (Sepracor, Inc., priority 2000, dated 2007).
Like-named read-outs stand apart in the source and are kept apart here.

Legend:
[1] = molecular target: T1, norepinephrine transporter (Homo sapiens, UniProt P23975); test: NE uptake: displacement of norephinephrine ligands in vitro (methods of Galli et al.); format: binding; settings: NE Uptake, Uptake Profile (IC50, nM)
serotonin transporter [2] = molecular target: T2, serotonin transporter (Homo sapiens, UniProt P31645); test: 5-HT uptake: displacement of serotonin ligands in vitro (methods of Gu et al.); format: binding; settings: displacement of serotonin ligands in vitro; read-out: 5-HT Uptake, Uptake Profile (IC50)
T2 sequence (P31645 whole entry): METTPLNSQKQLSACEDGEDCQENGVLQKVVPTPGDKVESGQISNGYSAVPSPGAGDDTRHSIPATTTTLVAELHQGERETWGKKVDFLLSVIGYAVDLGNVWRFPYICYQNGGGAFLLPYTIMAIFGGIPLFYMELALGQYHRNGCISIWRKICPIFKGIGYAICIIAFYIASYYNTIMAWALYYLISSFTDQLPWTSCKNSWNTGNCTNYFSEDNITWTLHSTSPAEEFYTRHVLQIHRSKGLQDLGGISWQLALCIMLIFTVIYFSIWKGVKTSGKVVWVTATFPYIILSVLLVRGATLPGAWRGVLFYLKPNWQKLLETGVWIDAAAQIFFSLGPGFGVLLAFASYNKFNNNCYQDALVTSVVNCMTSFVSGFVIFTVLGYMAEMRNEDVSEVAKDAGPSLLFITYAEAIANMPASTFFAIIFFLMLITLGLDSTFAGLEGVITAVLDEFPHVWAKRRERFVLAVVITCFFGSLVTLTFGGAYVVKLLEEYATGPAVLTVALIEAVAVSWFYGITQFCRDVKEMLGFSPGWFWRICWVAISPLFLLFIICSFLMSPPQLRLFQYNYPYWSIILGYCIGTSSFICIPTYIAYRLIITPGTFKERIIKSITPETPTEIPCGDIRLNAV

[3] = molecular target: T1, norepinephrine transporter; test: Functional activity, norephinephrine uptake inhibition in MDCK cell lines; format: cell-based
mouse = test: Acute toxicity assessment, maximum tolerated dose i.v., mouse; format: in vivo; settings: mice, 10 mg/kg i.v.
Description: (§1) An in vivo evaluation was carried out to determine the maximum tolerated dose of numerous test compounds in two animal species (mouse and rat). The compounds were administered i.v. and the animals were then observed for 72 h. Compounds 114, 115, 113, 110, 124, 125, 129, and 130 were solubilized in 5% dextrose (w/v)/polyethylene glycol 400 (4:1 v/v). Compounds 126, 127, 131, and 132 were solubilized in 10% hydroxypropyl-β-cyclodextrin (w/v).

rat = test: Acute toxicity assessment, maximum tolerated dose i.v., rat; format: in vivo; settings: rats, 10 mg/kg i.v.
Description: as §1

Sprague-Dawley rats [4] = test: Spontaneous locomotor activity in rats (Example 141); format: in vivo, rat
Description: The effect of 124 and 126 on spontaneous locomotor activity in rats was determined according to the procedures outlined by Silverman et al. (Motor Activity. In “Animal behavior in the laboratory”, Chapman and Hall eds, London, p. 79-92, 1978) and Boissier et al. (Arch. Int. Pharmacodyn. 1965, 158, 212. )
Test items and test item vehicles were administered to male Sprague-Dawley rats (n=10) as a single i.p. dose (vehicle A=10% hydroxypropyl-β-cyclodextrin in water; vehicle B=4:1 5% aqueous dextrose:PEG 400). […] Locomotor activity was determined during 20 minute periods using video image analyzers. Images recorded with video cameras were digitalized and displacements of the center of gravity of the digital image spot were tracked and analyzed. When the speed of displacement of the center of gravity of the spot was below 4.26 cm/sec, the movement was considered as inactivity. When this speed was between 4.26 and 6.75 cm/sec, the movement was considered as a small movement. When this speed was above 6.75 cm/sec, the movement was considered as a large movement. The number of occurrences, distance and duration of fast and slow movements, number of occurrences and duration of periods of inactivity and number of rears were measured.

rats [5] = format: in vivo, rat; settings: 1 h before test
Description: The animals were preconditioned in a pretest session, where the rats were individually forced to swim inside a vertical plexiglass cylinder containing water maintained at 19-20° C. […] Twenty four hours later, the compounds were administered intraperitoneal to the animals. One hour after administration of the test compound, animals were put back into the cylinder containing water. The total duration of immobility was measured during the last 4 minutes of a 6 minute test.
(§2) The results are expressed as the percentage of variation of the total duration of immobility calculated from the mean value of the vehicle-treated group (% variation=[(immobility duration of vehicle-immobility duration of test compound)/(immobility duration of vehicle)]×100%).

rats [6] = test: Behavioral despair assay in rats, 3 i.p. injections (Example 143); format: in vivo, rat; settings: for % variation of the total duration of immobility: 3 i.p. injections 24 h, 5 h and 1 h before test
Excerpt: The objective of this study was to assess the antidepressant effects of test compounds 124, 125, 126, and 127 in the behavioral despair assay in rats according to the methods described by Porsolt R. D., Anton G., Blavet N., Jalfre M., Behavioural despair in rats: a new model sensitive to antidepressant treatment, Eur. J. Pharmacol., 1978, 47, 379-391. The animals were preconditioned in a pretest session, where the rats were individually forced to swim inside a vertical plexiglass cylinder containing water maintained at 19-20° C. After 15 minutes in the water, they were allowed to dry for 15 minutes in a heated enclosure. Twenty four hours later, they were replaced in the cylinder and the total duration of immobility was measured during a 5 minute test (test session). The test compounds and vehicle were administered as a series of 3 intraperitoneal injections 24 h, 5 h and 1 h before the 5 minute test on the second day.
as §2

Sprague-Dawley rats [7] = test: Spontaneous locomotor activity in rats, 1-24 hours (Example 223); format: in vivo, rat; settings: 10 mg/kg i.p.
Description: The effect of 124 and 126 on spontaneous locomotor activity in rats was determined according to the procedures outlined by Silverman et al. (Motor Activity. In “Animal behavior in the laboratory”, Chapman and Hall eds, London, p. 79-92, 1978) and Boissier et al. (Arch. Int. Pharmacodyn. 1965, 158, 212. ) Test items and test item vehicles were administered to male Sprague-Dawley rats (n=10) as a single i.p. dose. One, three, five, eight and twenty four hours following administration, rats were placed in a plastic box 30×30 cm in a room with low light intensity (maximum 50 lux). Locomotor activity was determined during 20 minute periods using video image analyzers. Images recorded with video cameras were digitalized and displacements of the center of gravity of the digital image spot were tracked and analyzed. When the speed of displacement of the center of gravity of the spot was below 4.26 cm/sec, the movement was considered as inactivity. When this speed was between 4.26 and 6.75 cm/sec, the movement was considered as a small movement. When this speed was above 6.75 cm/sec, the movement was considered as a large movement. The number of occurrences, distance and duration of fast and slow movements, number of occurrences and duration of periods of inactivity and number of rears were measured.

DAT = DAT (Homo sapiens, UniProt Q01959); test: cell-based; design: expressed in transfected cells; settings: hDAT cell line; read-out: DA Uptake, Functional Assays (antagonism, EC50)
DAT, sequence (Q01959 whole entry): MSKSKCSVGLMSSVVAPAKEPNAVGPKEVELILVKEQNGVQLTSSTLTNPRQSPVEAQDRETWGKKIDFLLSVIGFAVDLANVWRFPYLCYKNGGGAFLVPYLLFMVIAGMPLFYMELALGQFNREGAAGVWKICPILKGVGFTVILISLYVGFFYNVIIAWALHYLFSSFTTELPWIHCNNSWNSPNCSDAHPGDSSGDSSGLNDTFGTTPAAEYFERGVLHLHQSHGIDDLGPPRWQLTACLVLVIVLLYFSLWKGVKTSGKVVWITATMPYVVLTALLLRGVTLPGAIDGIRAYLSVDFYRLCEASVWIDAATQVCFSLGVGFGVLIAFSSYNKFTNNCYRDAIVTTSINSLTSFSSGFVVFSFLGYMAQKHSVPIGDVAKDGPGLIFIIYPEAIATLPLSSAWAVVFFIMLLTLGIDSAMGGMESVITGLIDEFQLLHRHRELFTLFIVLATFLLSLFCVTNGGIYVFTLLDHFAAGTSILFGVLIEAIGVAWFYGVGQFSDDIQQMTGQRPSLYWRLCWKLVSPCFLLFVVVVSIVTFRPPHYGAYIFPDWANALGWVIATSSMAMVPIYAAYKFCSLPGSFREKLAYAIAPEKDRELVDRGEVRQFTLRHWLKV

serotonin transporter [8] = molecular target: T2, serotonin transporter; test: Functional activity, serotonin uptake inhibition in human HEK-293 cell lines; format: cell-based; design: expressed in transfected cells; host or cells: HEK-293; settings: human HEK-293 cell lines; read-out: 5-HT Uptake, Functional Assays (antagonism, EC50)
dopamine transporter = dopamine transporter (Homo sapiens, UniProt Q01959); test: DA uptake: displacement of dopamine ligands in vitro (methods of Gu et al.); settings: DA Uptake, Uptake Profile (IC50, nM), displacement of dopamine ligands in vitro
dopamine transporter, sequence (Q01959 whole entry): as above

T1 sequence (P23975 whole entry): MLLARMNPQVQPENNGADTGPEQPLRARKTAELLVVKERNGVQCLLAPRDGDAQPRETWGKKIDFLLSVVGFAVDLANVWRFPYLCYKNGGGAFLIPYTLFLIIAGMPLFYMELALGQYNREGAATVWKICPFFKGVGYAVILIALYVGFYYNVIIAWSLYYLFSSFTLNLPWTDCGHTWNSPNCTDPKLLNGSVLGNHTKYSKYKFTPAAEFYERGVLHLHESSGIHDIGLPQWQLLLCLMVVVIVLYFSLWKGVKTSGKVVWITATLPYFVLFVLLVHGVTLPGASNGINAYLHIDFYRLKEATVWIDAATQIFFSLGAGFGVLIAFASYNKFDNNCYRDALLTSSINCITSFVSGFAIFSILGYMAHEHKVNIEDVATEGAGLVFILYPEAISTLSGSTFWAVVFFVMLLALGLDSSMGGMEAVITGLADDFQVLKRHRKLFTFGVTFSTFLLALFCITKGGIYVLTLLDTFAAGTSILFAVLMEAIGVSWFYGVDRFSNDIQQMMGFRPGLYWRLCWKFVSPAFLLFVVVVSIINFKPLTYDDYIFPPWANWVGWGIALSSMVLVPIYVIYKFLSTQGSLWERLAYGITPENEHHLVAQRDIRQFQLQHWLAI

## O[C@H](CN1CCC[C@H](COc2ccc(C(F)(F)F)cc2)C1)C1(c2ccc(Cl)cc2)CCC1 [compound 124, 1S-1-[1-(4-Chloro-phenyl)-cyclobutyl]-2-[(3S)-3-(4-trifluoromethyl-phenoxymethyl)-piperidin-1-yl]-ethanol]
[1]
  IC50: < 100 nM
Serotonin transporter [2]
  IC50: < 1000 nM
[3]
  EC50: < 1000 nM
mouse
  tolerability and mortality after 72 h: well tolerated
rat
  tolerability and mortality after 72 h: well tolerated
Sprague-Dawley rats [4]; 5 mg/kg i.p.
  Small Movement Occurrences: 484.5 ± 114.1
Sprague-Dawley rats [4]; 5 mg/kg i.p., 20 min
  Large Movement Occurrences: 228.7 ± 22.5 ^
  Small Movement Occurrences: 589.2 ± 50.4 ^
Sprague-Dawley rats [4]; 5 mg/kg i.p., 60 min
  Large Movement Occurrences: 74.3 ± 14.8
  Small Movement Occurrences: 232.8 ± 33.6 ^
Sprague-Dawley rats [4]; 5 mg/kg i.p., 120 min
  Large Movement Occurrences: 168.5 ± 61.5 ^
  Small Movement Occurrences: 443.1 ± 100.6
Sprague-Dawley rats [4]; 5 mg/kg i.p., 180 min
  Large Movement Occurrences: 212.5 ± 65.1 ^
Sprague-Dawley rats [4]; 10 mg/kg i.p., 20 min
  Large Movement Occurrences: 391.5 ± 63.3
  Small Movement Occurrences: 919.6 ± 96.4
Sprague-Dawley rats [4]; 10 mg/kg i.p., 60 min
  Large Movement Occurrences: 427.6 ± 95.8
  Small Movement Occurrences: 965.2 ± 153.9
Sprague-Dawley rats [4]; 10 mg/kg i.p., 120 min
  Large Movement Occurrences: 603.5 ± 97.4
  Small Movement Occurrences: 1201.4 ± 160.9
Sprague-Dawley rats [4]; dosed at 5 and 10 mg/kg i.p.
  locomotor activity compared to control animals: significant increase
Rats [5]; 2.5 mg/kg i.p.
  % variation of the total duration of immobility: 6%
Rats [5]; 10 mg/kg i.p.
  % variation of the total duration of immobility: 91%
Rats [6]; 1.0 mg/kg
  % variation of the total duration of immobility: 29%
Rats [6]; 2.0 mg/kg
  % variation of the total duration of immobility: 71%
Rats [6]; 2.5 mg/kg
  effectiveness (statistically significant variation >30%): effective
  % variation of the total duration of immobility: 59%
Sprague-Dawley rats [7]; 1 hour
  Large Movement Occurrences: 655 ± 83
  Small Movement Occurrences: 1258 ± 83
Sprague-Dawley rats [7]; 3 hours
  Large Movement Occurrences: 751 ± 122
  Small Movement Occurrences: 1386 ± 96
Sprague-Dawley rats [7]; 5 hours
  Large Movement Occurrences: 616 ± 82
  Small Movement Occurrences: 1277 ± 100
Sprague-Dawley rats [7]; 8 hours
  Large Movement Occurrences: 455 ± 69
  Small Movement Occurrences: 1042 ± 109
Sprague-Dawley rats [7]; 24 hours
  Large Movement Occurrences: 440 ± 55
  Small Movement Occurrences: 934 ± 87
Sprague-Dawley rats [7]; at all times tested (1, 3, 5, 8, 24 hours)
  locomotor activity compared to control animals: significant increase
DAT
  EC50: < 10 nM
Serotonin transporter [8]
  EC50: < 1000 nM
Dopamine transporter
  IC50: < 10 nM
